Source: PubChem BioAssay (NCI)
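GI50: concentration for 50% inhibition of growth. Definition used: TGI = concentration required for complete inhibition of growth.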

Assays:
Assay in all cases: NCI tumour cell line growth inhibition, 384-well format
786-0 renal = system: 786-0 renal
A498 renal = system: A498 renal
A549 NSCLC = system: A549 NSCLC
ACHN renal = system: ACHN renal
BT-549 breast = system: BT-549 breast
COLO 205 colon = system: COLO 205 colon
DU-145 prostate = system: DU-145 prostate
HCC-2998 colon = system: HCC-2998 colon
HCT-116 colon = system: HCT-116 colon
HL-60(TB) leukemia = system: HL-60(TB) leukemia
HOP-62 NSCLC = system: HOP-62 NSCLC
HOP-92 NSCLC = system: HOP-92 NSCLC
HS 578T breast = system: HS 578T breast
HT29 colon = system: HT29 colon
IGROV1 ovarian = system: IGROV1 ovarian
KM12 colon = system: KM12 colon
LOX IMVI melanoma = system: LOX IMVI melanoma
M14 melanoma = system: M14 melanoma
MALME-3M melanoma = system: MALME-3M melanoma
MCF7 breast = system: MCF7 breast
MDA-MB-231 breast = system: MDA-MB-231 breast
MDA-MB-435 melanoma = system: MDA-MB-435 melanoma
MOLT-4 leukemia = system: MOLT-4 leukemia
NCI-H226 lung = system: NCI-H226 lung
NCI-H23 lung = system: NCI-H23 lung
NCI-H322M lung = system: NCI-H322M lung
OVCAR-3 ovarian = system: OVCAR-3 ovarian
OVCAR-5 ovarian = system: OVCAR-5 ovarian
PC-3 prostate = system: PC-3 prostate
RPMI-8226 leukemia = system: RPMI-8226 leukemia
RXF 393 renal = system: RXF 393 renal
SF-268 CNS = system: SF-268 CNS
SF-539 CNS = system: SF-539 CNS
SK-MEL-2 melanoma = system: SK-MEL-2 melanoma
SK-MEL-28 melanoma = system: SK-MEL-28 melanoma
SK-MEL-5 melanoma = system: SK-MEL-5 melanoma
SK-OV-3 ovarian = system: SK-OV-3 ovarian
SN12C renal = system: SN12C renal
SNB-19 CNS = system: SNB-19 CNS
SNB-75 CNS = system: SNB-75 CNS
SW-620 colon = system: SW-620 colon
T-47D breast = system: T-47D breast
TK-10 renal = system: TK-10 renal
U251 glioblastoma = system: U251 glioblastoma
UACC-257 melanoma = system: UACC-257 melanoma
UACC-62 melanoma = system: UACC-62 melanoma
UO-31 renal = system: UO-31 renal

Structure (SMILES): COC1(C(=O)N2Cc3nc(Cl)nc(N[C@H](C)c4cc(N)cc(C(F)(F)F)c4)c3C2)CCOCC1
- GI50 (786-0 renal): 16.5 µM
- TGI (786-0 renal): 33.2 µM
- GI50 (A498 renal): 14.1 µM
- TGI (A498 renal): 35.3 µM
- GI50 (A549 NSCLC): 24.5 µM
- TGI (A549 NSCLC): > 100 µM
- GI50 (ACHN renal): 20.4 µM
- TGI (ACHN renal): 67 µM
- GI50 (BT-549 breast): 14.5 µM
- TGI (BT-549 breast): 28 µM
- GI50 (COLO 205 colon): 24 µM
- TGI (COLO 205 colon): 56.9 µM
- GI50 (DU-145 prostate): 19.9 µM
- TGI (DU-145 prostate): 50.9 µM
- GI50 (HCC-2998 colon): 15.4 µM
- TGI (HCC-2998 colon): 30.3 µM
- GI50 (HCT-116 colon): 16.3 µM
- TGI (HCT-116 colon): 31.2 µM
- GI50 (HL-60(TB) leukemia): 16.2 µM
- TGI (HL-60(TB) leukemia): 29.8 µM
- GI50 (HOP-62 NSCLC): 15.6 µM
- TGI (HOP-62 NSCLC): 29.3 µM
- GI50 (HOP-92 NSCLC): 646 nM
- TGI (HOP-92 NSCLC): 18.6 µM
- GI50 (HS 578T breast): 12.6 µM
- TGI (HS 578T breast): 25.7 µM
- GI50 (HT29 colon): 18.2 µM
- TGI (HT29 colon): 35.9 µM
- GI50 (IGROV1 ovarian): 16.1 µM
- TGI (IGROV1 ovarian): 33.6 µM
- GI50 (KM12 colon): 3.55 µM
- TGI (KM12 colon): 22 µM
- GI50 (LOX IMVI melanoma): 18.7 µM
- TGI (LOX IMVI melanoma): 32.8 µM
- GI50 (M14 melanoma): 17.5 µM
- TGI (M14 melanoma): 32.3 µM
- GI50 (MALME-3M melanoma): 16.2 µM
- TGI (MALME-3M melanoma): 34.3 µM
- GI50 (MCF7 breast): 13.4 µM
- TGI (MCF7 breast): 30 µM
- GI50 (MDA-MB-231 breast): 22.4 µM
- TGI (MDA-MB-231 breast): 55.3 µM
- GI50 (MDA-MB-435 melanoma): 17.9 µM
- TGI (MDA-MB-435 melanoma): 36.9 µM
- GI50 (MOLT-4 leukemia): 8.48 µM
- TGI (MOLT-4 leukemia): 21 µM
- GI50 (NCI-H226 lung): 13.4 µM
- TGI (NCI-H226 lung): 31 µM
- GI50 (NCI-H23 lung): 14.2 µM
- TGI (NCI-H23 lung): 38.6 µM
- GI50 (NCI-H322M lung): 13.5 µM
- TGI (NCI-H322M lung): 43.2 µM
- GI50 (OVCAR-3 ovarian): 13.1 µM
- TGI (OVCAR-3 ovarian): 26.2 µM
- GI50 (OVCAR-5 ovarian): 23.2 µM
- TGI (OVCAR-5 ovarian): 75 µM
- GI50 (PC-3 prostate): 16.3 µM
- TGI (PC-3 prostate): 31.5 µM
- GI50 (RPMI-8226 leukemia): 10.6 µM
- TGI (RPMI-8226 leukemia): 22.5 µM
- GI50 (RXF 393 renal): 13.8 µM
- TGI (RXF 393 renal): 27.4 µM
- GI50 (SF-268 CNS): 17.2 µM
- TGI (SF-268 CNS): 34.8 µM
- GI50 (SF-539 CNS): 15.3 µM
- TGI (SF-539 CNS): 28.7 µM
- GI50 (SK-MEL-2 melanoma): 16.9 µM
- TGI (SK-MEL-2 melanoma): 31.1 µM
- GI50 (SK-MEL-28 melanoma): 18.5 µM
- TGI (SK-MEL-28 melanoma): 34.9 µM
- GI50 (SK-MEL-5 melanoma): 15 µM
- TGI (SK-MEL-5 melanoma): 28.4 µM
- GI50 (SK-OV-3 ovarian): 18.9 µM
- TGI (SK-OV-3 ovarian): 40.3 µM
- GI50 (SN12C renal): 10.1 µM
- TGI (SN12C renal): 25.3 µM
- GI50 (SNB-19 CNS): 19.3 µM
- TGI (SNB-19 CNS): > 100 µM
- GI50 (SNB-75 CNS): 10.7 µM
- TGI (SNB-75 CNS): 23.5 µM
- GI50 (SW-620 colon): 17.9 µM
- TGI (SW-620 colon): 40.2 µM
- GI50 (T-47D breast): 12.4 µM
- TGI (T-47D breast): 32.5 µM
- GI50 (TK-10 renal): 14.9 µM
- TGI (TK-10 renal): 35.3 µM
- GI50 (U251 glioblastoma): 15.1 µM
- TGI (U251 glioblastoma): 29.7 µM
- GI50 (UACC-257 melanoma): 18.3 µM
- TGI (UACC-257 melanoma): 33.3 µM
- GI50 (UACC-62 melanoma): 15.6 µM
- TGI (UACC-62 melanoma): 29.1 µM
- GI50 (UO-31 renal): 15.2 µM
- TGI (UO-31 renal): 29.2 µM
